Measured values as given in patent US20260365670A1, “EGFR INHIBITORS AND USES THEREOF” (DIZAL (JIANGSU) PHARMACEUTICAL CO., LTD., priority 2022, published 2026).
Where two headings read alike, the source gives them in different places.

Tests used:
A-431 = test: Cell proliferation GI50, A-431 cells (Table 6); type: cell-based
PC-9 = test: Cell proliferation assay, PC-9 cells (CellTiter-Glo, 72 hours); type: cell-based; settings: PC9 cells, CellTiter-Glo, read-out: PC9 GI50
Method in brief: (§1)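 Growth over 72 h was quantified by CellTiter-Glo luminescence, normalised as (G3 − G0)/(DMSO G3 − G0), for PC-9 cells seeded at 500/well and EGFR-mutant Ba/F3 cells at 5000/well in RPMI1640. Compound concentration series added after overnight incubation; GI50 obtained from best-fit curves.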

EGFR Exon19Del = target: T1, EGFR Exon19Del (Homo sapiens, UniProt P00533, DEL746-750); test: Inhibition of EGFR Exon19Del biochemical enzymatic activity (HTRF); settings: EGFR Del19, 1 mM ATP, 1 h, room temperature, read-out: IC50 @Del19
T1 construct: purchased Carna Bio
T1 sequence (P00533 with tags, fused parts or gaps DEL746-750 limits assumed): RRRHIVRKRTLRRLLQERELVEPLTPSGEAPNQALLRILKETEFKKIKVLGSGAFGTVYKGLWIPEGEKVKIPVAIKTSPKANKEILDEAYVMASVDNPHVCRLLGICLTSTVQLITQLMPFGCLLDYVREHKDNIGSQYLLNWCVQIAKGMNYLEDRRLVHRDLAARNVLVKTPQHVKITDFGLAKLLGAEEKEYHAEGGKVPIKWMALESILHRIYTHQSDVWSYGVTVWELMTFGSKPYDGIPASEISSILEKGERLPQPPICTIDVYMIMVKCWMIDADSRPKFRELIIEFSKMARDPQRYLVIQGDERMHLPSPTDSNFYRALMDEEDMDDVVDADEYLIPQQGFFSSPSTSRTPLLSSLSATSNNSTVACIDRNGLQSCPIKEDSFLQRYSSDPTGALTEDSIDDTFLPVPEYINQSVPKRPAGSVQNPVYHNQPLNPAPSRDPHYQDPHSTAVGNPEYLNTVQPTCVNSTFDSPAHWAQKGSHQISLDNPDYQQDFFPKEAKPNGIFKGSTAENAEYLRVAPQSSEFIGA
Method in brief: (§2)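 Phosphorylation of TK Substrate-biotin (1 μM) was measured at 1 mM ATP over a 1 h room-temperature incubation with serially varied compound. Detection was by HTRF ratio and analysis by 4PL fit to IC50.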

EGFR (d746-750 C797S) = target: T2, EGFR (d746-750 C797S) (Homo sapiens, UniProt P00533, C797S/DEL746-750); test: Inhibition of EGFR (d746-750 C797S) biochemical enzymatic activity (HTRF); settings: EGFR Del19-C797S, 1 mM ATP, 1 h, room temperature, read-out: IC50 (nM) @Del19-C797S
T2 construct: purchased signalchem
T2 sequence (P00533 with tags, fused parts or gaps DEL746-750/C797S limits assumed): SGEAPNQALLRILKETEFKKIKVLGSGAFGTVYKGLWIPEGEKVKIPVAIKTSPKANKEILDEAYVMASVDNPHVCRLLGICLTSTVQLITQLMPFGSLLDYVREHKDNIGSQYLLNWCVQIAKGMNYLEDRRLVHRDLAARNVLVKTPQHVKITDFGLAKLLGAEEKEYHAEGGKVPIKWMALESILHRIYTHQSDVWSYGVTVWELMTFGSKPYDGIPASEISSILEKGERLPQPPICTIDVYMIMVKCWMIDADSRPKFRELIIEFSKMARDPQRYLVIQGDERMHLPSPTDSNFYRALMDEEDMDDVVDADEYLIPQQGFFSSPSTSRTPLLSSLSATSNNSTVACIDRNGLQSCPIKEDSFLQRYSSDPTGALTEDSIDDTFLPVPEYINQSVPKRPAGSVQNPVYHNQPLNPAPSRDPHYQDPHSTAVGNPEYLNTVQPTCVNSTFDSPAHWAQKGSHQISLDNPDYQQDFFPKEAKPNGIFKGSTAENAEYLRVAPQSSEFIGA
Method in brief: as §2

EGFR[T790M/C797S/L858R] = target: T3, EGFR[T790M/C797S/L858R] (Homo sapiens, UniProt P00533, C797S/L858R/T790M); test: Inhibition of EGFR[T790M/C797S/L858R] biochemical enzymatic activity (HTRF); settings: EGFR T790M-C797S-L858R, 1 mM ATP, 1 h, room temperature, read-out: IC50 (nM) @T790M- C797S - L858R
T3 construct: purchased Carna Bio
Method in brief: as §2

[1] = target: T4, EGFR[T790M/C797S/d746-750] (Homo sapiens, UniProt P00533, C797S/DEL746-750/T790M); test: Inhibition of EGFR[T790M/C797S/d746-750] biochemical enzymatic activity (HTRF); settings: EGFR T790M-C797S-Del19, 1 mM ATP, 1 h, room temperature, read-out: IC50 (nM) @T790M - C797S - Del19
T4 construct: purchased Carna Bio
T4 sequence (P00533 with tags, fused parts or gaps DEL746-750/T790M/C797S limits assumed): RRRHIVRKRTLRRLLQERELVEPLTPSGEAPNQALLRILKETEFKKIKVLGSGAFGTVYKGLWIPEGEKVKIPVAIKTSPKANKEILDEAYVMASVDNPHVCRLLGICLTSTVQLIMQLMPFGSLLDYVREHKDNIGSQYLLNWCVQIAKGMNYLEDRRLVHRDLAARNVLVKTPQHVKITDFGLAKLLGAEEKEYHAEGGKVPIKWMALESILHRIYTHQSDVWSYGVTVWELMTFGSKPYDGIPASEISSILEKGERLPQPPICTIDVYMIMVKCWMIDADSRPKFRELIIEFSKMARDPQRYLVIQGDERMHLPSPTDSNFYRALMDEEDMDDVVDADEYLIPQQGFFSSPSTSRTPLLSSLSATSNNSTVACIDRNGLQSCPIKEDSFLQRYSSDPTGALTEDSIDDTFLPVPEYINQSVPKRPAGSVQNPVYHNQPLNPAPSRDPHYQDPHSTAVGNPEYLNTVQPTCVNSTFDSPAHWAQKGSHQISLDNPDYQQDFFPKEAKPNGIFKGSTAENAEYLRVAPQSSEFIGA
Method in brief: as §2

EGFR Exon19Del/T790M = target: T5, EGFR Exon19Del/T790M (Homo sapiens, UniProt P00533, DEL746-750/T790M); test: Inhibition of EGFR Exon19Del/T790M biochemical enzymatic activity (HTRF); settings: EGFR Del19-T790M, 1 mM ATP, 1 h, room temperature, read-out: IC50 (nM) @Del19-T790M
T5 construct: purchased Carna Bio
T5 sequence (P00533 with tags, fused parts or gaps DEL746-750/T790M limits assumed): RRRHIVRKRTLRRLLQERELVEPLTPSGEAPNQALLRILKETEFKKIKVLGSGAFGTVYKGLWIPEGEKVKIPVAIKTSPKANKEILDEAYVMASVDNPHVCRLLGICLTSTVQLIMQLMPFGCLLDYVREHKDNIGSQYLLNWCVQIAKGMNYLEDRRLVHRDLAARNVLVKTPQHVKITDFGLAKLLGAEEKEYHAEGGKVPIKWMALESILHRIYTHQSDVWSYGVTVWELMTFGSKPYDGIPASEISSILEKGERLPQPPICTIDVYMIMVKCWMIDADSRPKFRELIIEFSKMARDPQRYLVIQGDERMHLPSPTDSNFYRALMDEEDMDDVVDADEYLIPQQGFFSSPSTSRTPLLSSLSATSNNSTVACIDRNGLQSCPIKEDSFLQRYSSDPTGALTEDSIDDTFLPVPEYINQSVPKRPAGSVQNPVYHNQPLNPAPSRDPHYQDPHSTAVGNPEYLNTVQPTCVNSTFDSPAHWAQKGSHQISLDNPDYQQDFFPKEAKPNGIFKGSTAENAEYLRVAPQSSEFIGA
Method in brief: as §2

EGFR wild type = target: T6, EGFR wild type (Homo sapiens, UniProt P00533); test: Inhibition of EGFR wild type biochemical enzymatic activity (HTRF); settings: EGFR WT, 1 mM ATP, 1 h, room temperature, read-out: IC50 (nM) @WT
T6 construct: purchased Carna Bio
Method in brief: as §2

EGFR (C797S L858R) = target: T7, EGFR (C797S L858R) (Homo sapiens, UniProt P00533, C797S/L858R); test: Inhibition of EGFR (C797S L858R) biochemical enzymatic activity (HTRF); settings: EGFR L858-C797S, 1 mM ATP, 1 h, room temperature, read-out: IC50 (nM) @L858-C797S
T7 construct: purchased signalchem
T7 sequence (P00533 25-1210 C797S/L858R): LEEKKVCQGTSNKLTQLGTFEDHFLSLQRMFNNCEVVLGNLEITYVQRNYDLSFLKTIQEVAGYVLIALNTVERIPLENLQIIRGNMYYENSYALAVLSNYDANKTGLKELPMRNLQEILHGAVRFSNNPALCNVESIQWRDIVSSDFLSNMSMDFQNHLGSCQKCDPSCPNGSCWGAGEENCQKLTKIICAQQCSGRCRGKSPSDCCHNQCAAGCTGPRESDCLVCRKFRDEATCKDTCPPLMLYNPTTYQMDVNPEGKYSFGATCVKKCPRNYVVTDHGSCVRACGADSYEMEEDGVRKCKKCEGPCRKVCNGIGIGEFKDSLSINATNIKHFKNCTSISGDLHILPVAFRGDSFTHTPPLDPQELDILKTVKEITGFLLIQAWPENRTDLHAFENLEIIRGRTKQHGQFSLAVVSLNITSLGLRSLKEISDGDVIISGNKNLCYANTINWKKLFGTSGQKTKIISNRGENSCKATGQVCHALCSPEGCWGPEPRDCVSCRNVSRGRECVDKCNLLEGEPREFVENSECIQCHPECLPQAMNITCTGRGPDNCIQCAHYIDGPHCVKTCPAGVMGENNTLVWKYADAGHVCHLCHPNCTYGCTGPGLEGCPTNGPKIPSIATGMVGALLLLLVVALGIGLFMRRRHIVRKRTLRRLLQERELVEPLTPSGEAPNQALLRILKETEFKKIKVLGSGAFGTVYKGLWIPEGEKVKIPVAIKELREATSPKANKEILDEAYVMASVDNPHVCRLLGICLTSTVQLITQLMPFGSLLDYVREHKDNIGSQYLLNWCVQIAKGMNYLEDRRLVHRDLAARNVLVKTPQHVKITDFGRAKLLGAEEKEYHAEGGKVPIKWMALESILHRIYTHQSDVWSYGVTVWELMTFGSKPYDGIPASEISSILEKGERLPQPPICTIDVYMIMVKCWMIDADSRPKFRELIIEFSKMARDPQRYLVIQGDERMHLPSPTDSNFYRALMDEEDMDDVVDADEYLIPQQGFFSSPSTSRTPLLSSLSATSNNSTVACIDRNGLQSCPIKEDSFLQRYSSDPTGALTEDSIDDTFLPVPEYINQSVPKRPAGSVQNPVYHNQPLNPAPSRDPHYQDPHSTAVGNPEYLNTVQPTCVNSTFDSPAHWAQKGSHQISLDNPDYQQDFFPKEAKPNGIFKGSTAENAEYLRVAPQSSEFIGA
Method in brief: as §2

[2] = test system: Ba/F3 cells expressing EGFR mutations; test: Cell proliferation assay, Ba/F3 cells expressing EGFR mutations (CellTiter-Glo, 72 hours); type: cell-based; settings: CellTiter-Glo
Method in brief: as §1

EGFR L858R/T790M = target: T8, EGFR L858R/T790M (Homo sapiens, UniProt P00533, L858R/T790M); test: Inhibition of EGFR L858R/T790M biochemical enzymatic activity (HTRF); settings: EGFR L858R-T790M, 1 mM ATP, 1 h, room temperature, read-out: IC50 (nM) @L858R-T790M
T8 construct: purchased Carna Bio
T8 sequence (P00533 25-1210 T790M/L858R): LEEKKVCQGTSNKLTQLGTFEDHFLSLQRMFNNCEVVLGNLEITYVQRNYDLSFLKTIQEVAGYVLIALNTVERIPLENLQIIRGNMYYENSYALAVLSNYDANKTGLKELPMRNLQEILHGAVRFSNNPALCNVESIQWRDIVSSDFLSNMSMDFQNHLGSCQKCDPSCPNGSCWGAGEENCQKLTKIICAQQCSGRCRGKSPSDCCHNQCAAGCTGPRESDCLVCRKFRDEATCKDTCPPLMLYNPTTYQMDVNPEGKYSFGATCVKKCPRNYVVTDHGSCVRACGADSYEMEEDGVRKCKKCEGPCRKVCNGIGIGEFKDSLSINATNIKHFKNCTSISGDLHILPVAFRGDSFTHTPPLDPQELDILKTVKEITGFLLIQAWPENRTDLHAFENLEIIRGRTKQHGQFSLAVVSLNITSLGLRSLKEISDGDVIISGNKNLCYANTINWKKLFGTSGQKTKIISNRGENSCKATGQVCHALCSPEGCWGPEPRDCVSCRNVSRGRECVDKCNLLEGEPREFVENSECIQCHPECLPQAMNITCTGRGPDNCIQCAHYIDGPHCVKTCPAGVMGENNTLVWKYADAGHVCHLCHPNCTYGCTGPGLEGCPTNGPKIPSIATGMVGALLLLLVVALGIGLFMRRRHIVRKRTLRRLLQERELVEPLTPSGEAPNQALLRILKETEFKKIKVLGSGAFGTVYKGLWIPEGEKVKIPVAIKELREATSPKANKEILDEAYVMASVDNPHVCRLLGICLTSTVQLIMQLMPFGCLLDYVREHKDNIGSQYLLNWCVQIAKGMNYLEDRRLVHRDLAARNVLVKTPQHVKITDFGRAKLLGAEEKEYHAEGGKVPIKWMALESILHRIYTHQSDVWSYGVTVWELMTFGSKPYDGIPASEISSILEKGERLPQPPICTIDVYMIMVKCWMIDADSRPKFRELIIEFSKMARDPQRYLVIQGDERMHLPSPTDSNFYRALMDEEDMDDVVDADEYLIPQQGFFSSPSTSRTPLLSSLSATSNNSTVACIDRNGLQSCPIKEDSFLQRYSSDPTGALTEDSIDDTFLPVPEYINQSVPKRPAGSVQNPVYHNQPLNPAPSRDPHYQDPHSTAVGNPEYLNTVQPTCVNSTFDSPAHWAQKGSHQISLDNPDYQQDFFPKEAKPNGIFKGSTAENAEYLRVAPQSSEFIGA
Method in brief: as §2

EGFR L858R = target: T9, EGFR L858R (Homo sapiens, UniProt P00533, L858R); test: Inhibition of EGFR L858R biochemical enzymatic activity (HTRF); settings: 1 mM ATP, 1 h, room temperature, read-out: IC50 (nM) @L858R
T9 construct: purchased Carna Bio
Method in brief: as §2

[3] = BaF3 cells, EGFR DEL19-C797S, read-out: DEL19-C797S/BaF3 GI50
[4] = BaF3 cells, EGFR DEL19-T790-C797S, read-out: DEL19-T790-C797S/BaF3 GI50
[5] = BaF3 cells, EGFR L858R, read-out: L858R/BaF3 GI50
[6] = BaF3 cells, EGFR L858R-C797S, read-out: L858R-C797S/BaF3 GI50
[7] = BaF3 cells, EGFR L858R-T790-C797S, read-out: L858R-T790-C797S/BaF3 GI50
[8] = BaF3 cells, EGFR L858R-T790M, read-out: L858R-T790M/BaF3 GI50
[9] = EGFR DEL19-T790M, read-out: DEL19-T790M GI50
[10] = Homo sapiens, A-431, A-431 cells
[11] = Mus musculus, BaF3, 72 h, BaF3 cells, EGFR DEL19-C797S, read-out: DEL19-C797S/BaF3 GI50
[12] = Mus musculus, BaF3, 72 h, BaF3 cells, EGFR DEL19-T790-C797S, read-out: DEL19-T790-C797S/BaF3 GI50
[13] = Mus musculus, BaF3, 72 h, BaF3 cells, EGFR L858R, read-out: L858R/BaF3 GI50
[14] = Mus musculus, BaF3, 72 h, BaF3 cells, EGFR L858R-C797S, read-out: L858R-C797S/BaF3 GI50
[15] = Mus musculus, BaF3, 72 h, BaF3 cells, EGFR L858R-T790-C797S, read-out: L858R-T790-C797S/BaF3 GI50
[16] = Mus musculus, BaF3, 72 h, BaF3 cells, EGFR L858R-T790M, read-out: L858R-T790M/BaF3 GI50
[17] = Mus musculus, BaF3, 72 h, EGFR DEL19-T790M, read-out: DEL19-T790M GI50

GI50 (A-431; A-431 cells) | GI50 (PC-9) | IC50 (EGFR Exon19Del) | IC50 (EGFR (d746-750 C797S)) | IC50 (EGFR[T790M/C797S/L858R]) | IC50 [1] | IC50 (EGFR Exon19Del/T790M) | IC50 (EGFR wild type) | IC50 (EGFR (C797S L858R)) | IC50 (EGFR L858R/T790M) | IC50 (EGFR L858R) | GI50 (A-431; [10]) | GI50 (PC-9; Homo sapiens, PC-9, 72 h) | GI50 [2, 11] | GI50 [2, 12] | GI50 [2, 13] | GI50 [2, 14] | GI50 [2, 15] | GI50 [2, 16] | GI50 [2, 17] | Compound | also measured
320 nM | 4.6 nM | 1 nM | 0.77 nM | 1.1 nM | 1.4 nM | 1.7 nM | 7.7 nM | 1.5 nM | 1.3 nM | 1.9 nM | – | – | – | – | – | – | – | – | – | CC(C)N1CCN(c2ccc3nc4n(c3c2)C23CCC(CN(CCOc5c(cnn5C)-c5cc(cn(C)c5=O)C(=O)N4)C2)C3)CC1 (single isomer, unassigned) [Example A108B] | GI50 [2, 3]: 0.67 nM; GI50 [2, 4]: 1 nM; GI50 [2, 5]: 1 nM; GI50 [2, 6]: 1.1 nM; GI50 [2, 7]: 1.2 nM; GI50 [2, 8]: 3.9 nM; GI50 [2, 9]: 1.3 nM
– | – | 2.6 nM | 2.2 nM | 5.7 nM | 3.9 nM | 4.1 nM | 104 nM | 8.5 nM | 8.5 nM | 14 nM | 221 nM | 5.4 nM | 1.2 nM | 6.8 nM | 3.1 nM | 2.4 nM | 2 nM | 12 nM | 8.1 nM | C[C@@H]1CCCOc2c(cnn2C)-c2cc(cn(C)c2=O)C(=O)Nc2nc3ccc(N4CC(N5CCN(C)CC5)C4)cc3n2C1 [Example A46] | –
– | – | 24 nM | 23 nM | 367 nM | 6.8 nM | 8.6 nM | > 5000 nM | 573 nM | 81 nM | 707 nM | 2370 nM | 84 nM | 4.5 nM | 40 nM | 41 nM | 41 nM | 60 nM | 104 nM | 37 nM | Cn1ncc2c1OCCN1CC3CCC(CC3)(C1)n1c(nc3ccc(N4CCOCC4)cc31)NC(=O)c1cc-2c(=O)n(C)c1 [Example A74, 15,21-Dimethyl-5-(morpholin-4-yl)-23-oxa-2,9,11,15,20,21,26-heptaazaheptacyclo[26.2.2.1^{1,26}.1^{13,17}.0^{2,10}.0^{3,8}.0^{18,22}]tetratriaconta-3,5,7,9,13,17(34),18(22),19-octaene-12,16-dione] | –

Second part, the molecule before the results:

Compound | GI50 (A-431; A-431 cells) | GI50 (PC-9) | IC50 (EGFR Exon19Del) | IC50 (EGFR (d746-750 C797S)) | IC50 (EGFR[T790M/C797S/L858R]) | IC50 [1] | IC50 (EGFR Exon19Del/T790M) | IC50 (EGFR wild type) | IC50 (EGFR (C797S L858R)) | IC50 (EGFR L858R/T790M) | IC50 (EGFR L858R) | GI50 (A-431; [10]) | GI50 (PC-9; Homo sapiens, PC-9, 72 h) | GI50 [2, 11] | GI50 [2, 12] | GI50 [2, 13] | GI50 [2, 14] | GI50 [2, 15] | GI50 [2, 16] | GI50 [2, 17] | also measured
Cn1ncc2c1OCCN(CC(F)(F)F)CCn1c(nc3ccccc31)NC(=O)c1cc-2c(=O)n(C)c1 [Example A1, 5,26-Dimethyl-10-(2,2,2-trifluoroethyl)-7-oxa-4,5,10,13,20,22,26-heptaazapentacyclo[22.3.1.0^{2,6}.0^{13,21}.0^{14,19}]octacosa-1(28),2(6),3,14,16,18,20,24-octaene-23,27-dione] | – | – | 81 nM | 53 nM | 121 nM | 26 nM | 47 nM | 3550 nM | 120 nM | 120 nM | 197 nM | 3570 nM | 68 nM | 22 nM | 170 nM | 6.1 nM | 21 nM | 27 nM | 60 nM | 114 nM | –
C[C@@H]1CCCOc2c(cnn2C)-c2cc(cn(C)c2=O)C(=O)Nc2nc3ccc(N4CCC5(CCN(C)C5)CC4)cc3n2C1 [Example A35] | – | – | 1.1 nM | 0.84 nM | 2 nM | 2 nM | 1.9 nM | 2.7 nM | 1.8 nM | 2.2 nM | 1.5 nM | 215 nM | 3.7 nM | 0.38 nM | 0.5 nM | 0.53 nM | 1.7 nM | 1 nM | 3.4 nM | 1.6 nM | –
Cn1ncc2c1OCCN1CC3CCC(C3)(C1)n1c(nc3ccc(N4CCOCC4)cc31)NC(=O)c1cc-2c(=O)n(C)c1 (stereo not drawn) [Example A62] | 2370 nM | 4.9 nM | 9.6 nM | 3.8 nM | 7.3 nM | 6.3 nM | 6.2 nM | 2040 nM | 63 nM | 7.6 nM | 144 nM | – | – | – | – | – | – | – | – | – | GI50 [2, 3]: 0.66 nM; GI50 [2, 4]: 5.3 nM; GI50 [2, 5]: 10 nM; GI50 [2, 6]: 9.2 nM; GI50 [2, 7]: 9.2 nM; GI50 [2, 8]: 4.4 nM; GI50 [2, 9]: 6.1 nM
